What was measured:
[1] = biological target: Adenosine receptor A2a (Rattus norvegicus, UniProt P30543); experiment: Displacement of [3H]CGS21680 from adenosine A2A receptor in rat brain striatal membrane after 60 mins by liquid scintillation counting analysis
[2] = biological target: T1, Adenosine receptor A2b (Homo sapiens, UniProt P29275); experiment: Displacement of [3H]PSB-603 from human recombinant adenosine A2B receptor expressed in CHO cells after 75 mins by liquid scintillation counting analysis
T1 sequence (P29275 whole entry): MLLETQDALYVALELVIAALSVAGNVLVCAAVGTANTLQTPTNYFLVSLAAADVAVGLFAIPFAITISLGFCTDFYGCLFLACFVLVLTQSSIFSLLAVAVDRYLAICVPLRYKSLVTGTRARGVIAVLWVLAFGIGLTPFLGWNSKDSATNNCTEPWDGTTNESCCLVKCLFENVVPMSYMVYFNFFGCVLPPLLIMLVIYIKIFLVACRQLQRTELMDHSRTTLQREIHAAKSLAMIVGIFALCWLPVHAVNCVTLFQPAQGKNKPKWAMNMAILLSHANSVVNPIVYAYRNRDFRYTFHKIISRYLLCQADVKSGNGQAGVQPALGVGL

Chain of Adenosine receptor A2a (P30543 whole entry): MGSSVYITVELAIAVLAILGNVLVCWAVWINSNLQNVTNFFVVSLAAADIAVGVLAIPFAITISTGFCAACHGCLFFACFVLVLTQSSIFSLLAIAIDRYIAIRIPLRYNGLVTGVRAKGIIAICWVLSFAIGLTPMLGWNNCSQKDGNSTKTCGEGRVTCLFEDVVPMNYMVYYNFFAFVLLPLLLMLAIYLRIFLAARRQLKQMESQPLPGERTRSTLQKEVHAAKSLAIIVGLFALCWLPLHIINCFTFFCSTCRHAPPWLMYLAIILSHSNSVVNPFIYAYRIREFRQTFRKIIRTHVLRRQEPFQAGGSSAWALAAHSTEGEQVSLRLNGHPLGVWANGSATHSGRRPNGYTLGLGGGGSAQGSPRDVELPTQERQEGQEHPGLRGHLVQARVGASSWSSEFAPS

Ki [1] [µM]	Ki [2] [µM]	Compound
> 1	> 10	CN(NCC(=O)[C@@H](O)[C@@H](O)CO)c1nc(N)c2ncn([C@@H]3O[C@H](CO)[C@@H](O)[C@H]3O)c2n1
> 1	> 10	CN(NC(CO)C(=O)[C@@H](O)[C@@H](O)CO)c1nc(N)c2ncn([C@@H]3O[C@H](CO)[C@@H](O)[C@H]3O)c2n1 (some centres not stated)
> 1	> 10	Nc1nc(NNC(CO)C(=O)[C@@H](O)[C@@H](O)CO)nc2c1ncn2[C@@H]1O[C@H](CO)[C@@H](O)[C@H]1O (some centres not stated)
> 1	> 10	CN(NCC(=O)[C@H](O)[C@@H](O)[C@@H](O)CO)c1nc(N)c2ncn([C@@H]3O[C@H](CO)[C@@H](O)[C@H]3O)c2n1
> 1	> 10	CN(NCC(=O)[C@@H](O)[C@@H](O)[C@H](O)CO)c1nc(N)c2ncn([C@@H]3O[C@H](CO)[C@@H](O)[C@H]3O)c2n1
> 1	> 10	Nc1nc(NNCC(=O)[C@@H](O)[C@@H](O)CO)nc2c1ncn2[C@@H]1O[C@H](CO)[C@@H](O)[C@H]1O

— BindingDB's records for doi:10.1016/j.bmc.2012.11.021 (University of Bonn, 2012)
